# “And” between values parts separate entries of the source, which are not always exact repeats. Equal entries are not always repeated.
# Experiment: Dosimetry: human absorbed dose extrapolated from rat biodistribution (OLINDA/EXM)
# Details: human estimate extrapolated from rats
# From the text: The pharmacokinetics data from ex vivo biodistribution studies in rats were extrapolated to humans using the simplest allometric scaling model to estimate an effective dose in mSv/MBq. The dose calculation was done using computer software for internal dose assessment OLINDA/EXM® (Version 1.1, copyright Vanderbilt University, 2007).
# This work estimated the human absorbed radiation dose based on a detailed description of activity organ distribution data for normal rats. […] Additionally, the obtained theoretical values for examined cardiotracers were compared with [^18F]flurpiridaz absorbed dose calculated in exercise stress subjects in humans (Table 6).
smiles,measurement,value
CN(C)c1ccc2cc3ccc(N(C)C)cc3[n+](CC[18F])c2c1 [[^18F]SYN2],"Absorbed dose per administrated activity, Adrenals",8.06E-03 mSv/MBq
same,"Absorbed dose per administrated activity, Brain",2.84E-03 mSv/MBq
same,"Absorbed dose per administrated activity, Breasts",2.93E-03 mSv/MBq
same,"Absorbed dose per administrated activity, Gallbladder Wall",8.01E-03 mSv/MBq
same,"Absorbed dose per administrated activity, Heart Wall",0.0415 mSv/MBq and 0.042 mSv/MBq and 4.15E-02 mSv/MBq
same,"Absorbed dose per administrated activity, Kidneys",0.0704 mSv/MBq and 0.070 mSv/MBq and 7.04E-02 mSv/MBq
same,"Absorbed dose per administrated activity, Liver",1.17E-02 mSv/MBq
same,"Absorbed dose per administrated activity, Lower Large Intestine Wall",1.18E-02 mSv/MBq
same,"Absorbed dose per administrated activity, Lungs",2.16E-02 mSv/MBq
same,"Absorbed dose per administrated activity, Muscle",1.03E-02 mSv/MBq
same,"Absorbed dose per administrated activity, Osteogenic Cells",4.02E-03 mSv/MBq
same,"Absorbed dose per administrated activity, Ovaries",7.10E-03 mSv/MBq
same,"Absorbed dose per administrated activity, Pancreas",0.0285 mSv/MBq and 2.85E-02 mSv/MBq
same,"Absorbed dose per administrated activity, Red Marrow",4.77E-03 mSv/MBq
same,"Absorbed dose per administrated activity, Skin",2.65E-03 mSv/MBq
same,"Absorbed dose per administrated activity, Small Intestine",1.84E-02 mSv/MBq
same,"Absorbed dose per administrated activity, Spleen",2.13E-02 mSv/MBq
same,"Absorbed dose per administrated activity, Stomach Wall",1.19E-02 mSv/MBq
same,"Absorbed dose per administrated activity, Testes",4.97E-03 mSv/MBq
same,"Absorbed dose per administrated activity, Thymus",5.48E-03 mSv/MBq
same,"Absorbed dose per administrated activity, Thyroid",2.49E-02 mSv/MBq
same,"Absorbed dose per administrated activity, Total Body",7.67E-03 mSv/MBq
same,"Absorbed dose per administrated activity, Upper Large Intestine Wall",2.01E-02 mSv/MBq
same,"Absorbed dose per administrated activity, Urinary Bladder Wall",5.29E-03 mSv/MBq
same,"Absorbed dose per administrated activity, Uterus",6.27E-03 mSv/MBq
same,Effective Dose Equivalent,1.71E-02 mSv/MBq
same,Effective dose,0.0109 mSv/MBq and 1.09E-02 mSv/MBq

# From PMC11231114 (EJNMMI Research, 2024)
